Results as given in patent publication EP4800013A1, “PARG INHIBITOR” (Shanghai Qilu Pharmaceutical Research and Development …, priority 2023, dated 2025).
Where two headings read alike, the source gives them in different places.

Tests used:
[1] = biological target: T1, PARG (Homo sapiens, UniProt Q86W56); assay: Enzymatic inhibitory activity against PARG, HTRF assay; format: biochemical
T1 construct: made in house
In short: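 Purified PARG pre-incubated with compounds (top 10 µM, 3- to 5-fold dilutions, duplicates) 15 min at room temperature, then PARylated PARP1 substrate added for 60 min in Tris pH 7.4 buffer with DTT, EDTA/EGTA, KCl. HTRF (His-Tb/SA-XL665) read-out; IC50 by four-parameter logistic fit, normalised to DMSO and control-inhibitor wells.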

[2] = test system: KURAMOCHI cells; assay: Inhibition of proliferation of KURAMOCHI cells (CellTiter-Glo, intracellular ATP); format: cell-based; conditions: 168 h, incubated for 7 days, read-out: IC50 against KURAMOCHI cells
In short: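 KURAMOCHI cells seeded at 4000/well, incubated overnight, then treated with 9-point 1:4 compound series from 10 µM (0.5% DMSO) for 7 days at 37°C, 5% CO2. Viability read by CellTiter-Glo luminescence; inhibition normalised to medium-only (100%) and DMSO (0%) controls, IC50 from variable-slope four-parameter fit.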

[3] = HTRF, PARylated PARP1 protein as substrate, 60 minutes at room temperature, read-out: IC50 against PARG enzyme

T1 sequence (Q86W56 whole entry): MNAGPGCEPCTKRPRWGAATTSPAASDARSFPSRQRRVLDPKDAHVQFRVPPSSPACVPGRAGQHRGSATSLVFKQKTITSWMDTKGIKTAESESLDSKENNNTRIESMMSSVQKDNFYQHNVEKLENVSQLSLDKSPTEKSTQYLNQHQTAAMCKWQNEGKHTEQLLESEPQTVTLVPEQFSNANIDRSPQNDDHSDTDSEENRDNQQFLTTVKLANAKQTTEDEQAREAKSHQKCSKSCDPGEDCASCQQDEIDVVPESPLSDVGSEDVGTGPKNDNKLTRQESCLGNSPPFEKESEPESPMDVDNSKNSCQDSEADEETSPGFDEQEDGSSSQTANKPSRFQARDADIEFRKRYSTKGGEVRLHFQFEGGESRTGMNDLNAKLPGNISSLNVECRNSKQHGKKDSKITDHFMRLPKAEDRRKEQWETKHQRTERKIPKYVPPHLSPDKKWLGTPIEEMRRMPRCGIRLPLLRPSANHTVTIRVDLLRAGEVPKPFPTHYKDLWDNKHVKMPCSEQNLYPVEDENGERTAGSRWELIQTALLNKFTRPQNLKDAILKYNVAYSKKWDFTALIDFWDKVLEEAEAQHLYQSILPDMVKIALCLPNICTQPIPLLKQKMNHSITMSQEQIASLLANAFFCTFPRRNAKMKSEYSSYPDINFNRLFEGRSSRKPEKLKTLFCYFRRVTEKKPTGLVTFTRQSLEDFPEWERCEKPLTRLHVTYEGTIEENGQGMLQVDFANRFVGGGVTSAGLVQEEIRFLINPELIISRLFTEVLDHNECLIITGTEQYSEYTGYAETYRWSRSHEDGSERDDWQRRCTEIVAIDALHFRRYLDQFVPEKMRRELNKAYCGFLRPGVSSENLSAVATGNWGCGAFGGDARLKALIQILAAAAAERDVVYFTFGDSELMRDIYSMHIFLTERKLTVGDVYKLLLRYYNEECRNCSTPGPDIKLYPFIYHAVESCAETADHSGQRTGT

Row | Compound | IC50 [1, 3] | IC50 [2] | IC50 [1]
1 | CC(C)S(=O)(=O)N1CCN(c2cc(S(=O)(=O)NC3(C)CC3)cc3c2n(C)c(=O)n3-c2nnc(C(F)F)s2)CC1 [Compound A023] | 1.5 nM | 4 nM | –
2 | Cn1c(=O)n(-c2nnc(C(F)F)s2)c2cc(S(=O)(=O)NC3(C)CC3)cc(N3CCN(C(=O)N4CCCC4)CC3)c21 [Compound A027] | 3.8 nM | 5 nM | –
3 | COC(=O)N1CCN(c2cc(S(=O)(=O)NC3(C)CC3)cc3c2n(C)c(=O)n3-c2nnc(C(F)F)s2)CC1 [Compound A028] | 19 nM | 48 nM | –
4 | Cn1c(=O)n(-c2nnc(C(F)F)s2)c2cc(S(=O)(=O)NC3(C)CC3)cc(N3CCN(C(=O)C(C)(C)F)CC3)c21 [Compound A029] | 3 nM | 8 nM | –
5 | Cn1c(=O)n(-c2nnc(C(F)F)s2)c2cc(S(=O)(=O)NC3(C)CC3)cc(N3CCN(C(=O)C(C)(C)O)CC3)c21 [Compound A030] | 18.2 nM | 10 nM | –
6 | Cn1c(=O)n(-c2nnc(C(F)F)s2)c2cc(S(=O)(=O)NC3(CF)CC3)cc(N3CCNCC3)c21 [Compound A031] | 35.2 nM | 63 nM | –
7 | CN(C)C(=O)N1CCN(c2cc(S(=O)(=O)NC3(CF)CC3)cc3c2n(C)c(=O)n3-c2nnc(C(F)F)s2)CC1 [Compound A032] | 2.4 nM | 5 nM | –
8 | CC(C)C(=O)N1CCN(c2cc(S(=O)(=O)NC3(CF)CC3)cc3c2n(C)c(=O)n3-c2nnc(C(F)F)s2)CC1 [Compound A033] | 4 nM | 9 nM | –
9 | CN(C)C(=O)N1CCN(c2cc(S(=O)(=O)NC3(C)COC3)cc3c2n(C)c(=O)n3-c2nnc(C(F)F)s2)CC1 [Compound A036] | 6.8 nM | 12 nM | –
10 | CC(C)C(=O)N1CCN(c2cc(S(=O)(=O)NC3(C)COC3)cc3c2n(C)c(=O)n3-c2nnc(C(F)F)s2)CC1 [Compound A037] | 6.8 nM | 14 nM | –
11 | CN(C)C(=O)N1CC=C(c2cc(S(=O)(=O)NC3(C)CC3)cc3c2n(C)c(=O)n3-c2nnc(C(F)F)s2)CC1 [Compound A038] | 5.2 nM | 7 nM | –
12 | CN(C)C(=O)N1CCC(c2cc(S(=O)(=O)NC3(C)CC3)cc3c2n(C)c(=O)n3-c2nnc(C(F)F)s2)CC1 [Compound A039] | 3.5 nM | 7 nM | –
13 | Cn1ccnc1N1CCN(c2cc(S(=O)(=O)NC3(C)CC3)cc3c2n(C)c(=O)n3-c2nnc(C(F)F)s2)CC1 [Compound A040] | 5 nM | 9 nM | –
14 | C=CCn1c(=O)n(-c2nnc(C(F)F)s2)c2cc(S(=O)(=O)NC3(C#N)CC3)cc(N3CCN(C(=O)N(C)C)CC3)c21 [Compound A041] | 4.4 nM | 11 nM | –
15 | [2H]C([2H])([2H])N(C(=O)N1CCN(c2cc(S(=O)(=O)NC3(C#N)CC3)cc3c2n(CC=C)c(=O)n3-c2nnc(C(F)F)s2)CC1)C([2H])([2H])[2H] [Compound A042] | 5.1 nM | 6 nM | –
16 | CCn1c(=O)n(-c2nnc(C(F)F)s2)c2cc(S(=O)(=O)NC3(C#N)CC3)cc(N3CCN(C(=O)N(C)C)CC3)c21 [Compound A043] | 8 nM | 11 nM | –
17 | CC(C)n1c(=O)n(-c2nnc(C(F)F)s2)c2cc(S(=O)(=O)NC3(C#N)CC3)cc(N3CCN(C(=O)N(C)C)CC3)c21 [Compound A045] | 13.9 nM | 16 nM | –
18 | CC(C)n1c(=O)n(-c2nnc(C(F)F)s2)c2cc(S(=O)(=O)NC3(C#N)CC3)cc(N3CCN(S(=O)(=O)C(C)C)CC3)c21 [Compound A046] | 5.5 nM | 8 nM | –
19 | CC(C)n1c(=O)n(-c2nnc(C(F)F)s2)c2cc(S(=O)(=O)NC3(C#N)CC3)cc(N3CCN(C(=O)N4CCCC4)CC3)c21 [Compound A047] | – | 13 nM | 15 nM
20 | CC(C)n1c(=O)n(-c2nnc(C(F)F)s2)c2cc(S(=O)(=O)NC3(C#N)CC3)cc(N3CCN(C(=O)C(C)(C)F)CC3)c21 [Compound A048] | 34.8 nM | 27 nM | –
21 | CC(C)n1c(=O)n(-c2nnc(C(F)F)s2)c2cc(S(=O)(=O)NC3(C#N)CC3)cc(N3CCN(C(=O)C(C)(C)O)CC3)c21 [Compound A049] | 15.7 nM | 50 nM | –
22 | CC(C)C(=O)N1CCN(c2cc(S(=O)(=O)NC3(C#N)CC3)cc3c2n(C(C)C)c(=O)n3-c2nnc(C(F)F)s2)CC1 [Compound A050] | 22.5 nM | 20 nM | –
23 | C=CCn1c(=O)n(-c2nnc(C(F)F)s2)c2cc(S(=O)(=O)NC3(C#N)CC3)cc(N3CCN(C(=O)C(C)C)CC3)c21 [Compound A051] | 7.5 nM | 12 nM | –
24 | C=CCn1c(=O)n(-c2nnc(C(F)F)s2)c2cc(S(=O)(=O)NC3(C#N)CC3)cc(N3CCN(S(=O)(=O)C(C)C)CC3)c21 [Compound A052] | 1.6 nM | 2 nM | –
25 | C=CCn1c(=O)n(-c2nnc(C(F)F)s2)c2cc(S(=O)(=O)NC3(C#N)CC3)cc(N3CCN(C(=O)C(C)(C)O)CC3)c21 [Compound A053] | 6.7 nM | 37 nM | –
